Measured values taken from BindingDB's records for PubMed 36416208 (n/a, 2022).

Target: Serine/threonine-protein kinase PAK 1 (Homo sapiens, UniProt Q13153)
Assay: Inhibition of human recombinant PAK1 assessed as phosphorylation FRET peptide substrate measured after 60 mins

Sequence of Serine/threonine-protein kinase PAK 1 (Q13153 whole entry): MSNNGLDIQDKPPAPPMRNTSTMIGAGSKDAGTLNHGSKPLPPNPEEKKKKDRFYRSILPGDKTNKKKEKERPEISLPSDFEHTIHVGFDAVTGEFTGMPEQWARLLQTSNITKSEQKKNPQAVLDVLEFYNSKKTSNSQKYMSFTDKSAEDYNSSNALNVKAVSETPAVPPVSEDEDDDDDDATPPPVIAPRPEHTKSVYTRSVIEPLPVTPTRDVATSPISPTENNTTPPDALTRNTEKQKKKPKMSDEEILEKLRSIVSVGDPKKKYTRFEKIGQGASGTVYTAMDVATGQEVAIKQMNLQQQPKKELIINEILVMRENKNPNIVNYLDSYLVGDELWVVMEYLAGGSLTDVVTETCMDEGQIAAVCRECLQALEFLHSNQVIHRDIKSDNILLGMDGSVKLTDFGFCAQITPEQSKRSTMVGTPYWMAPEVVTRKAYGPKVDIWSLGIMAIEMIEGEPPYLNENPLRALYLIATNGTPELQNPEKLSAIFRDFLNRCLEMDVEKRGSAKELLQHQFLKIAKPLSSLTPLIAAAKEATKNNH

IC50: 233 nM
SMILES: CN1C(=O)CCC(N2C(=O)c3cccc(NCCCCCCCCNC(=O)N4CC[C@H](NC5=Nc6cc(F)ccc6N(CC(F)F)c6ccc(Cl)cc65)C4)c3C2=O)C1=O (stereo partly specified)
